From US9622997B2, “Methods for treating insomnia” (Lynn Health Science Institute, Inc., priority 2012, dated 2017)
Marks after values point to notes of the source that are not given here.

Tests used:
[1] = test system: healthy subjects subjected to a transient insomnia protocol; assay: Transient insomnia protocol (2 hour phase advance), double blind cross-over, overnight PSG and morning self-report; format: in vivo, human
Text: Twenty-four (24) healthy subjects aged 18-65 years (inclusive) with no insomnia were recruited for this study. […] Individuals were also excluded if they had excessive daytime sleepiness indicated by an Epworth Sleepiness Score (ESS) of >9 or a chronic sleep disturbance indicated by a Pittsburgh Sleep Questionnaire Inventory (PSQI) score of >5. Shift workers or subjects with irregular sleep schedules were excluded. Women of child-bearing potential who used medically acceptable methods of contraception were allowed to participate. Subjects were excluded if they had any of the following: BMI≧30; symptoms of gastroesophageal reflux such as heartburn on a regular basis; history of allergic reaction or hyper-sensitivity to benzodiazepines or CNS depressants; or evidence of any clinically significant medical abnormality or chronic disease indicated on laboratory screen or physical exam. Subjects were also excluded if they had any of the following: a history of alcohol or drug abuse; consume >2 alcoholic beverages on a single day and >14 beverages weekly; or >5 cigarettes a day and could not forego smoking for up to 14 hours while in the sleep lab. Participants abstained from over-the-counter medications within 7 days of the polysomnographic (hereinafter “PSG”) evaluation (except accepted birth control medication, NSAIDS/acetaminophen for infrequent pain not considered clinically significant). Participants abstained from alcohol for 24 hours and caffeine for 6 hours prior to each PSG evaluation. Eligible participants were required to report normal sleep patterns during the week before each PSG defined as a bedtime between 21:00 and 24:00 on at least 5 of 7 consecutive nights, with reported sleep duration between 7-9 hours, and no more than 2 naps a week.
The present study was a single-site study approved by Aspire Institutional Review Board. The study design was a double blind cross-over study. Subjects gave written informed consent prior to any study-related procedures. The study consisted of a screening session and two overnight PSGs. The treatments consisted of baclofen 20 mg and placebo. The screening session consisted of a medical screening visit to determine eligibility and safety for each subject. Eligible subjects were randomized into two treatment sequences based on a random permutation algorithm. One treatment sequence received baclofen 20 mg on the night of the first PSG, then placebo on the night of the second PSG. The other treatment sequence received placebo on the night of the first PSG, then baclofen 20 mg on the night of the second PSG. Subjects were given a 7 day sleep diary to complete immediately prior to the first sleep study. Subjects were given a second 7 day sleep diary to complete immediately prior to the second sleep study. Lights out was determined as two hours earlier than the subject's median habitual bedtime indicated in the diary prior to each PSG. Study drug (baclofen 20 mg or placebo) was administered 90 minutes prior to lights out.
On the PSG nights, respiratory effort and airflow, oxygen saturation, leg and chin EMGs were recorded in addition to the routine PSG measures to exclude subjects with sleep-related breathing disorders and periodic limb movement disorder. […] PSG measures consisted of the following: wake after sleep onset (WASO), total sleep time (TST), sleep onset latency (SOL), sleep efficiency (SE), percent sleep stage 1, percent sleep stage 2, percent sleep stages 3 and 4 combined, percent sleep REM. Self-report measures consisted of the following: subjective TST (sTST), subjective SOL (sSOL), subjective number of awakenings from sleep (sNAS), subjective sleep quality (sSQ). All PSGs were analyzed by one of the authors blinded to the treatment groups. […]

normal participants = settings: acute dose 40 mg; cited from earlier work
[2] = baclofen vs. placebo; cited from earlier work
[3] = PSG measure, percentage of TST, baclofen 20 mg
[4] = PSG measure, baclofen 20 mg 90 minutes prior to lights out, n=20
[5] = baclofen 20 mg vs placebo, not significant
[6] = baclofen 20 mg vs placebo, p < 0.01
[7] = baclofen 20 mg vs placebo, p < 0.05
[8] = self-report, morning questionnaire, baclofen 20 mg

## NCC(CC(=O)O)c1ccc(Cl)cc1 (stereo not drawn) [Baclofen, 4-amino-3-(4-chlorophenyl)-butanoic acid]
[1]; [3]
  REM: 24.1 ± 1.3%
  Stage 1: 2.3 ± 0.3%
  Stage 2: 58.9 ± 2.0%
  Stage 3/4: 14.7 ± 1.4%
[1]; [4]
  SE: 90.6 ± 1.2%
  SOL: 19.4 ± 3.8 min
  TST: 435.4 ± 5.8 min
  WASO: 25.6 ± 4.0 min
[1]; [5]
  SOL Absolute Change: -0.4 min
  sSOL Absolute Change: -1.0 min
  sTST Absolute Change: 0.3 h
[1]; baclofen 20 mg vs placebo, not significant (p=0.067)
  REM Absolute Change: 3.5%
[1]; baclofen 20 mg vs placebo, not significant (p=0.092)
  Stage 2 Absolute Change: −3.9%
[1]; baclofen 20 mg vs placebo, p < 0.001
  Stage 1 Absolute Change: −1.8*** %
[1]; [6]
  TST Absolute Change: 27.7** min
  sNAS Absolute Change: −1.3** #
[1]; [7]
  Stage 3/4 Absolute Change: 2.7* %
  WASO Absolute Change: −28.4* min
  sSQ Absolute Change: −0.5* scale 1-4
[1]; baclofen 20 mg vs zolpidem 10 mg (WASO 9.4 min, SE 3.7%), 2 hr phase advance
  baclofen data better than zolpidem (decrease in WASO, increase in SE): 2-4 fold
[1]; [8]
  sSOL: 25.0 ± 4.1 min
  sTST: 7.1 ± 0.2 h
[1]; self-report, number of awakenings, baclofen 20 mg
  sNAS: 2.4 ± 0.4
[1]; self-report, 1 = good, 2 = average, 3 = below average, 4 = poor, baclofen 20 mg
  sSQ: 1.9 ± 0.2 scale 1-4
[1]; ↑ increase compared to placebo, 20 mg, 2 hour phase-advance, current study
  TST: ↑ 27.7 min
[1]; ↓ decrease compared to placebo, NS, 20 mg, 2 hour phase-advance, current study
  SOL: ↓ 0.4^NS min
[1]; ↓ decrease compared to placebo, 20 mg, 2 hour phase-advance, current study
  wake after sleep onset (WASO), change vs placebo: ↓ 28.3 min
Normal participants
  ACT: no significant change
  postprandial reflux events: significant reduction
[2]
  decrease in reflux events in other studies: ~40%
